In ChEMBL document CHEMBL1156572, “Synthesis, stereochemical identification, and selective inhibitory activity against human monoamine oxidase-B of 2-methylcyclohexylidene-(4-arylthiazol-2-yl)hydrazones” (J Med Chem, 2008):

How the values were obtained:
[1] = target: T1, Amine oxidase [flavin-containing] A (Homo sapiens, UniProt P21397); conditions: read-out: INH
T1 sequence (P21397 whole entry): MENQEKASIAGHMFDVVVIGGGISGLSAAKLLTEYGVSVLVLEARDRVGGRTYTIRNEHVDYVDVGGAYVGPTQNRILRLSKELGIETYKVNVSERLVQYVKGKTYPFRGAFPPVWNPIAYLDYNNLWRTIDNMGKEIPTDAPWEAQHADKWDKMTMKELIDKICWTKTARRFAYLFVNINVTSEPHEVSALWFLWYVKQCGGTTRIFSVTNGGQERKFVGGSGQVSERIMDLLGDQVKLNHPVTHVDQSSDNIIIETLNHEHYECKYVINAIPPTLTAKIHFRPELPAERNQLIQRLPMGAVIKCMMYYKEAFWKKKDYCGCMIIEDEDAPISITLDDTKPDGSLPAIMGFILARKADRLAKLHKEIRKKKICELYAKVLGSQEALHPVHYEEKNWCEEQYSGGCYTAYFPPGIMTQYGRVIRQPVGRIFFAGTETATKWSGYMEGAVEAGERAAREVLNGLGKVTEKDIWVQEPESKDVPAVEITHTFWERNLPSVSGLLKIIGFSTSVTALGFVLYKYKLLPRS
Description: Inhibition of human recombinant MAOA after washing at 500 uM by centrifugation-ultrafiltration method

[2] = target: T1, Amine oxidase [flavin-containing] A; conditions: read-out: INH; remark: listed apart in the source
Description: Inhibition of human recombinant MAOA before repeated washing at 500 uM

O=C(NCCN1CCOCC1)c1ccc(Cl)cc1 [MOCLOBEMIDE]
inhibition at 500 µM [1]: 10.3%
inhibition at 500 µM [2]: 86.8%
